# In publication PMC11392244, “Characterization of a unique catechol-O-methyltransferase as a molecular drug target in parasitic filarial nematodes” (PLOS Neglected Tropical Diseases, 2024):
# “And” between values parts separate entries of the source, which are not always exact repeats. Equal values may be shown once. Read-outs that look alike come from different tables or passages of the source.
# Legend:
# [1] = test system: DiMT protein; type: biochemical, Dirofilaria immitis; settings: for IC50: read-out: IC 50 (μM ± SEM)
# [2] = test system: D. immitis microfilariae; assay: In vitro efficacy against live D. immitis microfilariae (motility, completely immotile %); type: cell-based, Dirofilaria immitis; settings: for Completely Immotile Microfilariae (%): single replicate; for effect on microfilariae: up to 120 h of culture
smiles,measurement,setting,value
O=c1c(O)cccc2cc(O)c(O)c(O)c12 [NSC35676],Mean Percent Inhibition (single experiments),[1]; 15 µM,41.9 and 44.3 and 44.1
same,"Mean Percent Inhibition, Average",[1]; 15 µM,43.4
same,Mean Percent Inhibition (single experiments),[1]; 25 µM,45.9 and 51.6 and 47.0
same,"Mean Percent Inhibition, Average",[1]; 25 µM,48.2
same,Mean Percent Inhibition (single experiments),[1]; 50 µM,62.0 and 58.4 and 60.6
same,"Mean Percent Inhibition, Average",[1]; 50 µM,60.4
same,Mean Percent Inhibition (single experiments),[1]; 75 µM,63.8 and 67.9 and 65.4
same,"Mean Percent Inhibition, Average",[1]; 75 µM,65.7
same,Mean Percent Inhibition (single experiments),[1]; 100 µM,68.1 and 72.1 and 71.2
same,"Mean Percent Inhibition, Average",[1]; 100 µM,70.5
same,IC50,[1],25.2 ± 1.4 µM
same,Mean completely Immotile (%),"[2]; 25 µM, 0 h",0%
same,Completely Immotile Microfilariae (%),"[2]; 25 µM, 0 h",0%
same,Mean completely Immotile (%),"[2]; 25 µM, 24 h",1%
same,Completely Immotile Microfilariae (%),"[2]; 25 µM, 24 h",0% and 1% and 2%
same,Mean completely Immotile (%),"[2]; 25 µM, 48 h",3%
same,Completely Immotile Microfilariae (%),"[2]; 25 µM, 48 h",2% and 3% and 4%
same,Mean completely Immotile (%),"[2]; 25 µM, 72 h",4.33%
same,Completely Immotile Microfilariae (%),"[2]; 25 µM, 72 h",4% and 3% and 6%
same,Mean completely Immotile (%),"[2]; 25 µM, 96 h",5.67%
same,Completely Immotile Microfilariae (%),"[2]; 25 µM, 96 h",5% and 4% and 8%
same,Mean completely Immotile (%),"[2]; 25 µM, 120 h",9.33%
same,Completely Immotile Microfilariae (%),"[2]; 25 µM, 120 h",7% and 6% and 15%
same,Mean completely Immotile (%),"[2]; 75 µM, 0 h",0%
same,Completely Immotile Microfilariae (%),"[2]; 75 µM, 0 h",0%
same,Mean completely Immotile (%),"[2]; 75 µM, 24 h",2.33%
same,Completely Immotile Microfilariae (%),"[2]; 75 µM, 24 h",1% (2×) and 5%
same,Mean completely Immotile (%),"[2]; 75 µM, 48 h",4.33%
same,Completely Immotile Microfilariae (%),"[2]; 75 µM, 48 h",4% and 3% and 6%
same,Mean completely Immotile (%),"[2]; 75 µM, 72 h",9%
same,Completely Immotile Microfilariae (%),"[2]; 75 µM, 72 h",10% and 8% and 9%
same,Mean completely Immotile (%),"[2]; 75 µM, 96 h",12%
same,Completely Immotile Microfilariae (%),"[2]; 75 µM, 96 h",12% and 11% and 13%
same,Mean completely Immotile (%),"[2]; 75 µM, 120 h",15.67%
same,Completely Immotile Microfilariae (%),"[2]; 75 µM, 120 h",15% and 13% and 19%
same,Mean completely Immotile (%),"[2]; 125 µM, 0 h",0%
same,Completely Immotile Microfilariae (%),"[2]; 125 µM, 0 h",0%
same,Mean completely Immotile (%),"[2]; 125 µM, 24 h",4.33%
same,Completely Immotile Microfilariae (%),"[2]; 125 µM, 24 h",3% and 4% and 6%
same,Mean completely Immotile (%),"[2]; 125 µM, 48 h",6%
same,Completely Immotile Microfilariae (%),"[2]; 125 µM, 48 h",5% and 4% and 9%
same,Mean completely Immotile (%),"[2]; 125 µM, 72 h",12.33%
same,Completely Immotile Microfilariae (%),"[2]; 125 µM, 72 h",12% and 10% and 15%
same,Mean completely Immotile (%),"[2]; 125 µM, 96 h",20.33%
same,Completely Immotile Microfilariae (%),"[2]; 125 µM, 96 h",16% and 15% and 30%
same,Mean completely Immotile (%),"[2]; 125 µM, 120 h",18.67%
same,Completely Immotile Microfilariae (%),"[2]; 125 µM, 120 h",19% and 15% and 22%
same,Mean completely Immotile (%),"[2]; 200 µM, 0 h",0%
same,Completely Immotile Microfilariae (%),"[2]; 200 µM, 0 h",0%
same,Mean completely Immotile (%),"[2]; 200 µM, 24 h",5%
same,Completely Immotile Microfilariae (%),"[2]; 200 µM, 24 h",5% and 4% and 6%
same,Mean completely Immotile (%),"[2]; 200 µM, 48 h",7.33%
same,Completely Immotile Microfilariae (%),"[2]; 200 µM, 48 h",5% and 6% and 11%
same,Mean completely Immotile (%),"[2]; 200 µM, 72 h",13.33%
same,Completely Immotile Microfilariae (%),"[2]; 200 µM, 72 h",15% and 13% and 12%
same,Mean completely Immotile (%),"[2]; 200 µM, 96 h",18.67%
same,Completely Immotile Microfilariae (%),"[2]; 200 µM, 96 h",20% and 19% and 17%
same,Mean completely Immotile (%),"[2]; 200 µM, 120 h",23%
same,Completely Immotile Microfilariae (%),"[2]; 200 µM, 120 h",23% and 22% and 24%
same,effect on microfilariae,[2],insignificant effect
COc1ccc(-c2c(C)c(C(=O)O)nc(-c3ccc4c(O)c(OC)c5c(c4n3)=NC(C)(C)N=5)c2N)c(O)c1OC [NSC62709],Mean Percent Inhibition,[1]; 40 µM,32.1% and 22.9% and 27.7%
same,"Mean Percent Inhibition, Average",[1]; 40 µM,27.6%
same,Mean Percent Inhibition,[1]; 80 µM,63.8% and 49.7% and 46.2%
same,"Mean Percent Inhibition, Average",[1]; 80 µM,53.2%
same,Mean Percent Inhibition,[1]; 120 µM,65.7% and 71.6% and 62.3%
same,"Mean Percent Inhibition, Average",[1]; 120 µM,66.5%
same,Mean Percent Inhibition,[1]; 140 µM,72.8% and 64.4% and 72.4%
same,"Mean Percent Inhibition, Average",[1]; 140 µM,69.9%
same,Mean Percent Inhibition,[1]; 180 µM,81.5% and 69.4% and 74.5%
same,"Mean Percent Inhibition, Average",[1]; 180 µM,75.1%
same,IC50,[1],76.2 ± 1.7 µM
same,Mean completely Immotile (%),"[2]; 50 µM, 0 h",0%
same,Completely Immotile Microfilariae (%),"[2]; 50 µM, 0 h",0%
same,Mean completely Immotile (%),"[2]; 50 µM, 24 h",1.67%
same,Completely Immotile Microfilariae (%),"[2]; 50 µM, 24 h",1% and 2% (2×)
same,Mean completely Immotile (%),"[2]; 50 µM, 48 h",3.33%
same,Completely Immotile Microfilariae (%),"[2]; 50 µM, 48 h",3% (2×) and 4%
same,Mean completely Immotile (%),"[2]; 50 µM, 72 h",5.67%
same,Completely Immotile Microfilariae (%),"[2]; 50 µM, 72 h",5% (2×) and 7%
same,Mean completely Immotile (%),"[2]; 50 µM, 96 h",7.33%
same,Completely Immotile Microfilariae (%),"[2]; 50 µM, 96 h",7% and 9% and 6%
same,Mean completely Immotile (%),"[2]; 50 µM, 120 h",14%
same,Completely Immotile Microfilariae (%),"[2]; 50 µM, 120 h",12% and 14% and 16%
same,Mean completely Immotile (%),"[2]; 100 µM, 0 h",0%
same,Completely Immotile Microfilariae (%),"[2]; 100 µM, 0 h",0%
same,Mean completely Immotile (%),"[2]; 100 µM, 24 h",3.67%
same,Completely Immotile Microfilariae (%),"[2]; 100 µM, 24 h",3% (2×) and 5%
same,Mean completely Immotile (%),"[2]; 100 µM, 48 h",7%
same,Completely Immotile Microfilariae (%),"[2]; 100 µM, 48 h",7% and 6% and 8%
same,Mean completely Immotile (%),"[2]; 100 µM, 72 h",9.33%
same,Completely Immotile Microfilariae (%),"[2]; 100 µM, 72 h",9% (2×) and 10%
same,Mean completely Immotile (%),"[2]; 100 µM, 96 h",12.33%
same,Completely Immotile Microfilariae (%),"[2]; 100 µM, 96 h",10% and 12% and 15%
same,Mean completely Immotile (%),"[2]; 100 µM, 120 h",17%
same,Completely Immotile Microfilariae (%),"[2]; 100 µM, 120 h",15% and 17% and 19%
same,Mean completely Immotile (%),"[2]; 150 µM, 0 h",0%
same,Completely Immotile Microfilariae (%),"[2]; 150 µM, 0 h",0%
same,Mean completely Immotile (%),"[2]; 150 µM, 24 h",4.67%
same,Completely Immotile Microfilariae (%),"[2]; 150 µM, 24 h",5% (2×) and 4%
same,Mean completely Immotile (%),"[2]; 150 µM, 48 h",8.67%
same,Completely Immotile Microfilariae (%),"[2]; 150 µM, 48 h",9% and 6% and 11%
same,Mean completely Immotile (%),"[2]; 150 µM, 72 h",12.33%
same,Completely Immotile Microfilariae (%),"[2]; 150 µM, 72 h",12% and 11% and 14%
same,Mean completely Immotile (%),"[2]; 150 µM, 96 h",14.67%
same,Completely Immotile Microfilariae (%),"[2]; 150 µM, 96 h",13% and 14% and 17%
same,Mean completely Immotile (%),"[2]; 150 µM, 120 h",21.33%
same,Completely Immotile Microfilariae (%),"[2]; 150 µM, 120 h",20% and 21% and 23%
same,Mean completely Immotile (%),"[2]; 200 µM, 0 h",0%
same,Completely Immotile Microfilariae (%),"[2]; 200 µM, 0 h",0%
same,Mean completely Immotile (%),"[2]; 200 µM, 24 h",6.67%
same,Completely Immotile Microfilariae (%),"[2]; 200 µM, 24 h",7% (2×) and 6%
same,Mean completely Immotile (%),"[2]; 200 µM, 48 h",10.67%
same,Completely Immotile Microfilariae (%),"[2]; 200 µM, 48 h",12% and 9% and 11%
same,Mean completely Immotile (%),"[2]; 200 µM, 72 h",14.33%
same,Completely Immotile Microfilariae (%),"[2]; 200 µM, 72 h",16% (2×) and 11%
same,Mean completely Immotile (%),"[2]; 200 µM, 96 h",18.67%
same,Completely Immotile Microfilariae (%),"[2]; 200 µM, 96 h",19% and 17% and 20%
same,Mean completely Immotile (%),"[2]; 200 µM, 120 h",25.33%
same,Completely Immotile Microfilariae (%),"[2]; 200 µM, 120 h",24% and 26% (2×)
same,effect on microfilariae,[2],insignificant effect
COc1cc(C)c2c(c1C=O)Oc1c(c(C)c(O)c3c1C(O)OC3=O)OC2=O (centres unmarked) [NSC87511],IC50,[1],155 ± 2.2 µM
same,effect on microfilariae,[2],insignificant effect
CO[C@@H]1[C@@H](OC(=O)c2ccc(C)[nH]2)[C@@H](O)[C@H](Oc2ccc3c(O)c(NC(=O)c4ccc(O)c(CC=C(C)C)c4)c(=O)oc3c2Cl)OC1(C)C [NSC227186],Mean Percent Inhibition,[1]; 10 µM,25.0% and 23.9% and 30.2%
same,"Mean Percent Inhibition, Average",[1]; 10 µM,26.4%
same,Mean Percent Inhibition,[1]; 40 µM,40.1% and 37.1% and 38.3%
same,"Mean Percent Inhibition, Average",[1]; 40 µM,38.5%
same,Mean Percent Inhibition,[1]; 70 µM,40.5% and 43.1% and 39.6%
same,"Mean Percent Inhibition, Average",[1]; 70 µM,41.1%
same,Mean Percent Inhibition,[1]; 100 µM,44.8% and 43.5% and 45.8%
same,"Mean Percent Inhibition, Average",[1]; 100 µM,44.7%
same,Mean Percent Inhibition,[1]; 130 µM,46.6% and 49.3% and 48.1%
same,"Mean Percent Inhibition, Average",[1]; 130 µM,48.0%
same,Mean Percent Inhibition,[1]; 160 µM,50.6% and 48.4% and 57.2%
same,"Mean Percent Inhibition, Average",[1]; 160 µM,52.0%
